The term IC50 denotes the concentration at which inhibition is half-maximal. Low readings indicate greater potency in that assay, high ones weaker potency in that assay.

Experimental findings from article PMC11497361 (Current Research in Microbial Sciences, 2024) are described below.

The assay has as its target WNV NS5 WT. Briefly: MTase-Glo luminescence methyltransferase assay. To be noted: poly-A RNA acceptor, 20 µM SAM, pH 9, 30 °C, 25 min; MTase activity. The assay is classed as biochemical, Orthoflavivirus nilense.

Compound `Nc1ncnc2c1ncn2[C@@H]1O[C@H](CNC(=O)C(c2ccccc2)(c2ccccc2)c2ccccc2)[C@@H](O)[C@H]1O` [compound 1, 5´-(2,2,2-triphenylacetamide)-5´-deoxyadenosine] had an IC50 of 21.6 ± 11.1 µM.
The compound `Nc1ncnc2c1ncn2[C@@H]1O[C@H](C[C@@H](N)CC[C@H](N)C(=O)O)[C@@H](O)[C@H]1O` [sinefungin] came in with an IC50 of 3.6 ± 1.8 µM.
